Test results published in publication PMC7922224, “Searching for Small Molecules as Antibacterials: Non-Cytotoxic Diarylureas Analogues of Triclocarban” (Antibiotics, 2021).
Converted amounts (≈) assume the structure as drawn.

What was measured:
S. aureus ATCC 29213 = assay: MIC by broth microdilution (CLSI); format: cell-based, Staphylococcus aureus; settings: Gram-positive, 37 °C, 24 h, Mueller Hinton Broth; for MIC: Staphylococcus aureus, ATCC29213
Method: (§1) The in vitro Minimum Inhibitory Concentrations (MICs, μg/mL) were determined by the broth microdilution method according to the Clinical Laboratory Standards Institute (CLSI) guidelines. MIC values were recorded as the lowest concentration of compounds at which there was no optically detectable microorganism growth and evaluated by comparing the growth in each well visually with that of the growth in the control well for bacteria. All compounds were dissolved in dimethyl sulfoxide (DMSO) and were tested in a final concentration range of from 512 to 2 µg/mL. MICs for the reference antibiotic norfloxacin against quality control strains were used to confirm the validity of the screen. According to the CLSI guidelines, diphenylureas were tested in vitro against a panel of Gram-positive and Gram-negative bacteria belonging to the ATCC collection using the standard microdilution test for the determination of MICs. MICs of the synthesised compounds along with the parent compound TCC and with the standard antibiotic norfloxacin are listed in Table 1. The compounds were also analyzed in terms of molecular mass, logP (Table 1), number of hydrogen-bond donors and number of hydrogen-bond acceptors, and most of them obeyed Lipinski’s rule. […] Based on our results, it seems that the 3,4-dichloro-disubstitution pattern, which is present in TCC, is not crucial for activity. […] Moreover, the activity against Enterococcus faecalis was interesting. E. faecalis is a ubiquitous member of the healthy human gut microbiota and also a common opportunistic pathogen and leading cause of nosocomial infections. It has a high incidence for most infections, and the case numbers have been increasing in recent decades, likely due to its greater ability to persist in healthcare facilities and its higher abundance in the human gut microbiome. Kim et al. (2016) compared the bactericidal effects of plain and antibacterial soap containing 0.3% TCC. The authors found no significative difference between the effects of plain and medicated soap at either temperature, with the only exception of E. faecalis ATCC 19433 at 40 °C.
(§2) MICs (μg/mL) were determined by the broth microdilution method, using 96-well plates, according to CLSI [26]. Stock solutions of the investigated compounds were obtained by setting the concentration at the maximum possible value. Then, the stock solutions were diluted 1:10 with Mueller Hinton Broth (Oxoid, Italy). Afterwards, twofold serial dilutions in the suitable test medium were carried out to obtain a set of concentrations from 512 to 2 µg/mL in the wells. To obtain the stock solution, DMSO (100%) was employed as diluent. The following bacteria strains, available as freeze-dried discs, belonging to the ATCC collection, were used: Gram-positive: S. aureus ATCC 29213, 6538, and 6538P, E. faecalis ATCC 29212; Gram-negative: K. pneuomoniae ATCC 13883, P. aeruginosa ATCC 27853. To conserve the purity of cultures and to enable their reproducibility, cryovials of all microbial strains in the medium were set up and stored at −80 °C. Pre-cultures of each bacterial strain were prepared in Mueller Hinton Broth (MHB) and incubated at 37 °C for 3–5 h. The turbidity of bacterial cell suspension was calibrated to 0.5 McFarland Standard by the spectrophotometric method (OD 625 nm 0.08–0.10), as indicated in the CLSI protocol M7-A9 and, further, the standardized suspension was diluted (1:100) with MHB to reach 1–2 × 10^6 CFU/mL. All wells were seeded with 100 µl of the mentioned final inoculum, and some wells contained only inoculated broth as control growth. […] The MICs were determined by using the assay repeated twice in triplicate. Throughout the study, norfloxacin was used as reference antibiotic. Appropriate controls involved norfloxacin for bacteria as international reference standard. […]

S. aureus ATCC 6538P = assay: MIC by broth microdilution (CLSI); format: cell-based, Staphylococcus aureus; settings: Gram-positive, 37 °C, 24 h, Mueller Hinton Broth; for MIC: Staphylococcus aureus, ATCC6538P
Method: as §1, §2

S. aureus ATCC 6538 = assay: MIC by broth microdilution (CLSI); format: cell-based, Staphylococcus aureus; settings: Gram-positive, 37 °C, 24 h, Mueller Hinton Broth; for MIC: Staphylococcus aureus, ATCC6538
Method: as §1, §2

E. faecalis ATCC 29212 = assay: MIC by broth microdilution (CLSI); format: cell-based, Enterococcus faecalis; settings: Gram-positive, 37 °C, 24 h, Mueller Hinton Broth; for MIC: Enterococcus faecalis, ATCC29212, read-out: MIC E.f. 29212
Method: as §1, §2

E. coli 25922 = assay: MIC by broth microdilution (CLSI); format: cell-based; settings: Escherichia coli, Gram-negative, 37 °C, 24 h, Mueller Hinton Broth
K. pneumoniae ATCC 13883 = assay: MIC by broth microdilution (CLSI); format: cell-based; settings: Gram-negative, 37 °C, 24 h, Mueller Hinton Broth; for MIC: Klebsiella pneumoniae, ATCC13883, read-out: MIC K.p. 13883
Method: as §1, §2

P. aeruginosa ATCC 27853 = assay: MIC by broth microdilution (CLSI); format: cell-based; settings: Gram-negative, 37 °C, 24 h, Mueller Hinton Broth; for MIC: Pseudomonas aeruginosa, ATCC27853
Method: as §1, §2

Staphylococcus aureus = assay: MIC by broth microdilution, S. aureus (strain not given); format: cell-based; settings: strain not specified (best value among the ATCC strains), read-out: MIC against S. aureus
Method: as §1, §2

Compound	MIC (S. aureus ATCC 29213) [µg/mL]	MIC (S. aureus ATCC 6538P) [µg/mL]	MIC (S. aureus ATCC 6538) [µg/mL]	MIC (E. faecalis ATCC 29212) [µg/mL]	MIC (E. coli 25922) [µg/mL]	MIC (K. pneumoniae ATCC 13883) [µg/mL]	MIC (P. aeruginosa ATCC 27853) [µg/mL]	MIC (Staphylococcus aureus) [µg/mL]	melting point [°C]	MIC S.a. 29213 (S. aureus ATCC 29213) [µg/mL]	MIC S.a. 6538P (S. aureus ATCC 6538P) [µg/mL]	MIC S.a. 6538 (S. aureus ATCC 6538) [µg/mL]	MIC E.f. 29212 (E. faecalis ATCC 29212) [µg/mL]	MIC K.p. 13883 (K. pneumoniae ATCC 13883) [µg/mL]	MIC P. a. 27853 (P. aeruginosa ATCC 27853) [µg/mL]
Cc1ccccc1NC(=O)Nc1ccc(F)c(F)c1 [1gj, 1-(3,4-Difluorophenyl)-3-(2-methylphenyl)urea]	> 256	128 (≈ 488 µM)	64 (≈ 244 µM)	64 (≈ 244 µM)	> 256	> 256	> 256	–	–	–	–	–	–	–	–
COc1ccc(NC(=O)Nc2ccccc2)cc1 [1df, 1-(4-Methoxyphenyl)-3-phenylurea]	256 (≈ 1060 µM)	128 (≈ 528 µM)	64 (≈ 264 µM)	128 (≈ 528 µM)	> 256	> 256	256 (≈ 1060 µM)	–	–	–	–	–	–	–	–
Cc1ccc(NC(=O)Nc2ccccc2)cc1 [1af, 1-(4-Methylphenyl)-3-phenylurea]	128 (≈ 566 µM)	128 (≈ 566 µM)	64 (≈ 283 µM)	64 (≈ 283 µM)	> 256	> 256	> 256	–	–	–	–	–	–	–	–
Cc1ccccc1NC(=O)Nc1ccccc1Cl [1gh, 1-(2-Chlorophenyl)-3-(2-methylphenyl)urea]	256 (≈ 982 µM)	32 (≈ 123 µM)	32 (≈ 123 µM)	256 (≈ 982 µM)	> 256	> 256	> 256	32 (≈ 123 µM)	223 to 224	–	–	–	–	–	–
Cc1cccc(C)c1NC(=O)Nc1ccccc1 [1bf, 1-(2,6-Dimethylphenyl)-3-phenylurea]	> 256	16 (≈ 66.6 µM)	16 (≈ 66.6 µM)	64 (≈ 266 µM)	> 256	> 256	> 256	16 (≈ 66.6 µM)	240 to 241	–	–	–	–	–	–
Cc1ccc(NC(=O)Nc2ccc(Cl)c(Cl)c2)cc1 [1ae, 1-(3,4-Dichlorophenyl)-3-p-tolylurea]	128 (≈ 434 µM)	64 (≈ 217 µM)	64 (≈ 217 µM)	128 (≈ 434 µM)	> 256	> 256	> 256	–	225 to 226	–	–	–	–	–	–
O=C(Nc1ccccc1)Nc1ccc(F)c(F)c1 [1fj, 1-(3,4-Difluorophenyl)-3-phenylurea]	256 (≈ 1030 µM)	64 (≈ 258 µM)	128 (≈ 516 µM)	128 (≈ 516 µM)	–	256 (≈ 1030 µM)	256 (≈ 1030 µM)	–	213 to 214	–	–	–	–	–	–
COc1ccc(NC(=O)Nc2ccc(Cl)c(Cl)c2)cc1 [1de, 1-(3,4-Dichlorophenyl)-3-(4-methoxyl)phenylurea]	128 (≈ 411 µM)	64 (≈ 206 µM)	64 (≈ 206 µM)	64 (≈ 206 µM)	> 256	> 256	> 256	–	–	–	–	–	–	–	–
Cc1ccccc1NC(=O)Nc1ccc(Cl)c(Cl)c1 [1eg, 1-(3,4-Dichlorophenyl)-3-(2-methylphenyl)urea]	256 (≈ 867 µM)	128 (≈ 434 µM)	64 (≈ 217 µM)	64 (≈ 217 µM)	> 256	> 256	> 256	–	–	–	–	–	–	–	–
COc1ccc(NC(=O)Nc2ccc(C)cc2)cc1 [1ad, 1-(4-Methoxyphenyl)-3-(p-tolyl)urea]	128 (≈ 499 µM)	32 (≈ 125 µM)	32 (≈ 125 µM)	128 (≈ 499 µM)	> 256	> 256	> 256	32 (≈ 125 µM)	–	–	–	–	–	–	–
COc1ccc(NC(=O)Nc2c(C)cccc2C)cc1 [1bd, 1-(4-Methoxyphenyl)-3-(2,6-dimethylphenyl)urea]	> 256	16 (≈ 59.2 µM)	32 (≈ 118 µM)	128 (≈ 473 µM)	> 256	> 256	> 256	16 (≈ 59.2 µM)	–	–	–	–	–	–	–
1-(3-Chloro-4-fluorophenyl)-3-(2-methylphenyl)urea [1gk]	–	–	–	–	–	–	–	–	–	256	64	128	64	256	256
O=C(Nc1ccccc1)Nc1ccccc1 [1ff (NCC), 1,3-Diphenylurea]	> 256	64 (≈ 302 µM)	128 (≈ 603 µM)	> 256	> 256	> 256	> 256	–	–	–	–	–	–	–	–
O=C(Nc1ccccc1)Nc1ccc(Cl)cc1 [1cf (MCC), 1-(4-Chlorophenyl)-3-phenylurea]	128 (≈ 519 µM)	128 (≈ 519 µM)	64 (≈ 259 µM)	64 (≈ 259 µM)	> 256	> 256	> 256	–	–	–	–	–	–	–	–
O=C(Nc1ccc(Cl)cc1)Nc1ccc(Cl)cc1 [1cc (DCC), 1-(4-Chlorophenyl)-3-(4-chlorophenyl)urea]	256 (≈ 911 µM)	256 (≈ 911 µM)	128 (≈ 455 µM)	128 (≈ 455 µM)	> 256	> 256	> 256	–	–	–	–	–	–	–	–
O=C(Nc1ccccc1)Nc1ccc(Cl)c(Cl)c1 [1ef, 1-(3,4-Dichlorophenyl)-3-phenylurea]	256 (≈ 911 µM)	128 (≈ 455 µM)	16 (≈ 56.9 µM)	128 (≈ 455 µM)	> 256	> 256	256 (≈ 911 µM)	16 (≈ 56.9 µM)	–	–	–	–	–	–	–
Cc1ccc(NC(=O)Nc2ccccc2C)cc1 [1ag, 1-(2-Methylphenyl)-3-(4-methylphenyl)urea]	256 (≈ 1070 µM)	256 (≈ 1070 µM)	128 (≈ 533 µM)	128 (≈ 533 µM)	> 256	> 256	> 256	–	–	–	–	–	–	–	–
